Source: patent publication US10358469B2, “Methods and pharmaceutical compositions for the treatment of cancer” (INSERM (INSTITUT NATIONAL DE LA SANTÉ ET DE LA RECHERCHE …, priority 2014, dated 2019)

Legend:
HaCat cells = assay: Propidium iodide (PI) uptake, flow cytometry, HaCat cells; type: cell-based; settings: 10 μM, absence of 10% FBS, FIG. 4A
Procedure: FIG. 4: Antp-AAC-11-LZ (363-399) peptide induced necrotic cell death under low serum conditions. (A) SeAx or HaCat cells cultured in the absence of 10% FBS were left untreated or treated with 4 μM or 10 μM, respectively, of the Antp-AAC-11-LZ (363-399) peptide for the indicated durations. Cells were then analyzed by flow cytometry for PI staining. The results represent the mean number of PI-positive cells±S.D. from at least three independent experiments. (B) A549 and HaCat cells were plated at a densities of 4.5×10^3 in 96 well plates (100 μL total volume per well) and allowed to attach overnight in a 37° C. incubator (5% CO2). Media was removed from cells and replaced with media containing 10 μM Antp-AAC-11-LZ (363-399) peptide (100 μL total volume per well) peptide and the plates were incubated for the indicated durations. Lactate dehydrogenase (LDH) activity released in the culture medium was then assessed and data expressed as a percentage of the maximal level (Max) of LDH activity determined after total cell lysis±S.D. from at least three independent experiments.
Cell death was evaluated upon staining with propidium iodide and flow cytometry analysis.
We therefore evaluated necrotic cell death of SeAx cells treated with the Antp-AAC-11-LZ (363-399) peptide by PI uptake assay following different time exposures. […]

D3H2LN cells = assay: Proliferation of D3H2LN cells (not showed); type: cell-based
[1] = system: leukemic cells isolated from hMRP8-PML/RARα transgenic mice; assay: Acute promyelocytic leukemia (APL) mouse model, survival; type: in vivo
Procedure: FIG. 9: Antp-AAC-11-LZ (363-399) peptide treatment of leukemic mice protects against disease progression. Mice were challenged with 10^4 leukemic cells isolated from hMRP8-PML/RARα transgenic mice, allowed to engraft for 10 d, and were then injected intraperitonaly each day for 7 consecutive days with Antp-AAC-11-LZ (363-399) peptide (1.8 mg/kg) or vehicle (normal saline solution), or subcutaneously implanted with a 21-d release pellet containing 5 mg ATRA (n=6 for each treatment). Mice were monitored for survival.
We use an established in vivo APL model based on syngenic grafts of leukemic blasts from hMRP8-PML/RARα transgenic mice, as described by Brown et al. (Brown et al., 1997). This model mimics human APL, both in its biological characteristics and its response to conventional therapeutic drugs such as all-trans retinoic acid (ATRA) and 100% of the mice die of the disease (Brown et al., 1997; Kogan et al., 2000; Lallemand-Breitenbach et al., 1999). […] leukemic cells isolated from bone marrow, spleen, or lymph nodes of leukemic hMRP8-PML/RARα transgenic mice (Brown et al., 1997) were injected into the tail vein of 6-7 week old syngeneic FVB/N mice. Establishment of leukemia was assessed by the appearance of high leukocyte and low platelet counts at around day 8 (Brown et al., 1997). Ten days after transplantation, mice implanted with leukemic cells were randomly assigned to either type of treatment (n=6). Antp-AAC-11-LZ (363-399) peptide (1.8 mg/kg) or vehicle (normal saline solution) was injected intraperitonaly each day for 7 consecutive days. Retinoic acid was administrated by subcutaneous implantation of a 21-d release pellet containing 5 mg ATRA (Innovative Research of America). Mice were then monitored for survival.

For “Ac-RQIKIWFKKQNRRMKWKKAKLNAEKLKDFKIRLQYFARGLQVYIRQLRLALQGKT-NH2 [Antp-AAC-11-LZ (363-399)]”, the “loss of cell membrane integrity (PI uptake) in nonmalignant cells” value (HaCat cells) was “much decreased loss of cell membrane integrity”, the “proliferation at the concentrations used for migration” value (D3H2LN cells) was “neither the Antp-AAC-11-LZ (363-399) or TAT-AAC-11-LZ (363-399) peptides impaired proliferation” and the “mice surviving up to 67 d” value ([1]; n=6 per treatment) was “Four of 6”. For the same substance, the “mice surviving up to 76 d” value ([1]; n=6 per treatment) was 2 and the mean survival time ([1]; peptide 1.8 mg/kg i.p. daily for 7 days, ATRA 5 mg 21-d release pellet s.c., from day 10 after graft, n=6) was 68.5 days.
